“And” between values parts separate entries of the source, which are not always exact repeats. Equal values may be shown once. Read-outs that look alike come from different tables or passages of the source. Blank lines part the entries; values can stand above or below the compound they belong to.
How the values were obtained:
[1] = system: NIH/3T3 cells transfected with an empty vector (Vec-1A5); assay: Aggregation assay on NIH/3T3 cells transfected with an empty vector (non-L1 component of cell adhesion); type: cell-based, murine; settings: four independent assays, each compound at the concentration given in the source, control 15±1
Experimental: (§1) NIH/3T3 cells were cultured at 37° C. in Dulbecco's […] Eagle medium (DMEM) (Invitrogen, Carlsbad, Calif.) supplemented with 10% normal calf serum (Intergen, Purchase, N.Y.) and 400 μg/ml G418 (Life Technologies), in an atmosphere of 90% air and 10% CO2. Three subclones were utilized in these studies: 2B2-L1, 2A2-L1 and Vec-1A5.
(§2) Cells were detached by gentle agitation in calcium-free and magnesium-free PBS supplemented with 0.1 mg/ml. DNase, mechanically dissociated to obtain a single-cell suspension, and diluted to 350,000 cells/ml. One ml of the cell suspension was added per well (4.5 cm^2) to a 12-well plate. Agonists and test antagonists were added simultaneously, plates were sealed with parafilm to prevent evaporation, and the cells were gently shaken for 30 minutes at room temperature or on ice. Cells were viewed at a final magnification of 200× and each well was scored for single and adherent cells in five to six microscopic fields of view. Approximately 100 cells per field of view and 600 cells per well were counted. The percent of adherent cells was calculated for each microscopic field of view and then averaged for each well.
Each candidate antagonist was tested at a single aqueous concentration that was calculated to produce a molar membrane concentration equivalent to that produced by a buffer solution of 100 mM ethanol (ECEQ).

[2] = obtained from a published source or calculated from published octanol/water partition coefficients (divided by five); cited from earlier work
[3] = target: T1, L1-mediated cell-cell adhesion in human L1-transfected NIH/3T3 cells (2B2-L1, 2A2-L1) (Homo sapiens, UniProt P32004); assay: Cell aggregation (cell-cell adhesion) assay in ethanol-sensitive, human L1-transfected NIH/3T3 cells; type: cell-based; design: antagonist at the aqueous concentration (μM); Antagonist Activity Butanol % ± SEM; 1-alc; effect of increasing concentrations of 1-butanol on the antagonist activity (in words): dose or concentration left out as unconfirmed; settings: for effect of increasing concentrations of 1-butanol on the antagonist activity (in words): 2 to […] mM 1-butanol, single antagonist concentration (FIG. 5A, 5B); for agonist or antagonist activity (in words): at the ECEQ and at 10 times the ECEQ; for IC50: read-out: IC50 concentration (antagonist, used in FIG. 5A); for antagonist effect at higher concentrations (in words): 2 μM to 10 μM; for antagonist activity against ethanol (in words): test concentrations of FIG. 3 / Table 1
Experimental: as §1
Cell adhesion assays were performed in the absence and presence of the compounds, listed below in Table 1. […] The aqueous concentration of each antagonist was calculated to produce membrane concentrations equivalent to 100 mM ethanol. Membrane/buffer partition coefficients (Pm/b) were obtained or calculated from published octanol/water partition coefficients.
as §2
Agonists and antagonists were initially tested at aqueous concentrations that were calculated to produce molar membrane concentrations (˜10 mM) equivalent to those produced by an aqueous concentration of 100 mM ethanol (ECEQ).
L1-mediated cell-cell adhesion was defined as the difference in percent of adherent cells between an L1-transfected cell line (2B2-L1 or 2A2-L1) and a vector-transfected cell line (Vec-1A5).
Agonists include compounds that inhibit L1-mediated cell-cell adhesion.

[4] = Membrane/buffer partition coefficient (Pm/b); type: physicochemical; settings: from Pm/b of Table 1
Experimental: Cell adhesion assays were performed in the absence and presence of the compounds, listed below in Table 1. […] Membrane/buffer partition coefficients (Pm/b) were obtained or calculated from published octanol/water partition coefficients. The compounds are sorted by decreasing membrane/buffer partition coefficients.
Calculations were based on membrane-buffer partition coefficients (Pm/b), which were obtained from a published source (McCreery and Hunt, 1978) or were derived by dividing the octanol/water partition coefficient by five.

[5] = target: T1, L1-mediated cell-cell adhesion in human L1-transfected NIH/3T3 cells (2B2-L1, 2A2-L1); design: antagonist at the aqueous concentration (μM); Antagonist Activity Butanol % ± SEM; 1-alc; settings: 3-buten-1-ol alone (Wilkemeyer et al., 2000); cited from earlier work
[6] = EC50 membrane (based on calculated membrane concentrations, expressed relative to 1-pentanol), against 100 mM ethanol, calculated from the Pm/b (FIG. 3)
[7] = against 2 mM butanol, linear regression of concentration-response curves (FIG. 4), read-out: aqueous concentration that produced half maximal effect (antagonism)
[8] = approximate EC50 (against 2 mM 1-butanol), antagonist concentration used in FIG. 5B
[9] = against 2 mM butanol, not adjusted for membrane concentration

T1 sequence (P32004 whole entry): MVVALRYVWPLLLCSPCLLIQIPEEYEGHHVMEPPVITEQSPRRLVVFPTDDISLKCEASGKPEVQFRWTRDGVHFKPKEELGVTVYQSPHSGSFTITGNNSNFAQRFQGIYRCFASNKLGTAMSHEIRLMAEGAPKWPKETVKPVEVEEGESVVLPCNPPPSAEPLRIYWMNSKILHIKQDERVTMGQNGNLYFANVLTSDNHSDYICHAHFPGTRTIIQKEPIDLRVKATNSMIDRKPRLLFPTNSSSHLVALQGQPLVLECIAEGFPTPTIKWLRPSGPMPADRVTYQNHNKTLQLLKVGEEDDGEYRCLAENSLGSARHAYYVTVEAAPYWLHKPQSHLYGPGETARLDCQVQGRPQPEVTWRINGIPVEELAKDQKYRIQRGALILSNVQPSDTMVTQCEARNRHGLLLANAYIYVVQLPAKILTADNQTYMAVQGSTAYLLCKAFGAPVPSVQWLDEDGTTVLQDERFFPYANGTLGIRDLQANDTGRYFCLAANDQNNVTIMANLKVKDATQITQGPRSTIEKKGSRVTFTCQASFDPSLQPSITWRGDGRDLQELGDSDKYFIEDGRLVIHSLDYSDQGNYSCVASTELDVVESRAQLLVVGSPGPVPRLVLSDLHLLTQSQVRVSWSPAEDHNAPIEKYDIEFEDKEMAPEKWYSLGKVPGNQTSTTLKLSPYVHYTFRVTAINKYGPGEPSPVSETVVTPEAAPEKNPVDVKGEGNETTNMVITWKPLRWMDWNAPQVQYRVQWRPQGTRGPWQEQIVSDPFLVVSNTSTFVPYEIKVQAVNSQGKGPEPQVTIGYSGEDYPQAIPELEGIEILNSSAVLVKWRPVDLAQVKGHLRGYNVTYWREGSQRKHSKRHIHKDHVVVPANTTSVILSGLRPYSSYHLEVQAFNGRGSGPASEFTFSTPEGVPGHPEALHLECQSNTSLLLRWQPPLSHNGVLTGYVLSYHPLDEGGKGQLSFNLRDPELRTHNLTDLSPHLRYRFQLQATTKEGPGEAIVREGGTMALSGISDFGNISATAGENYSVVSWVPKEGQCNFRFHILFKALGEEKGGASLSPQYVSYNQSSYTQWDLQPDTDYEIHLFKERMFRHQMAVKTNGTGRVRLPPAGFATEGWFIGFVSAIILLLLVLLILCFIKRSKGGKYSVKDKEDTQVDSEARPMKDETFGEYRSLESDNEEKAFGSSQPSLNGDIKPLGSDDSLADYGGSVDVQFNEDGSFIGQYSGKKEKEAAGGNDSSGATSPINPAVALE

Compound: CCCCCO [1-pentanol]
mean±S.E.M. percent cell adhesion [1]: 16±2% | P(m/b) membrane/buffer partition coefficient [2]: 5.02 | EC50 [3]: 540 µM | effect of increasing concentrations of 1-butanol on the antagonist activity (in words) [3]: did not eliminate the antagonist activity | EC50 [3, 6]: 540 µM | EC50 [3, 7]: 223 µM | EC50 [3, 8]: ~700 µM

Compound: CCCC(C)(C)O [2-methyl-2-pentanol]
P(m/b) membrane/buffer partition coefficient [2]: 5.2 | effect of increasing concentrations of 1-butanol on the antagonist activity (in words) [3]: did not eliminate the antagonist activity

Compound: CC(C)CCCO [4-methyl-1-pentanol]
mean±S.E.M. percent cell adhesion [1]: 15±3% | P(m/b) membrane/buffer partition coefficient [2]: 9.36 | effect of increasing concentrations of 1-butanol on the antagonist activity (in words) [3]: did not eliminate the antagonist activity | EC50 [3, 7]: 32 µM | ratio of half-maximal aqueous concentrations versus 1-hexanol [3, 9]: approximately 2.5 times | ratio of half-maximal aqueous concentrations versus 1-pentanol [3, 9]: approximately 7 fold | EC50 [3, 8]: ~40 µM

Compound: C[S+](C)[O-] [dimethyl sulfoxide, reference compound]
mean±S.E.M. percent cell adhesion [1]: 13±0% | P(m/b) membrane/buffer partition coefficient [2]: 0.012 | inhibition of L1-mediated cell adhesion (in words) ([3]; 120 mM (1%) DMSO): did not inhibit | agonist or antagonist activity (in words) [3]: neither agonists nor antagonists

Compound: CCCCCCCCCCCO [1-undecanol]
P(m/b) membrane/buffer partition coefficient [2]: 3810 | EC50 [3]: 0.03 µM | EC50 [3, 6]: 20 µM

Compound: CCCC(C)O (stereo not shown) [2-pentanol]
P(m/b) membrane/buffer partition coefficient [2]: 4.38 | effect of increasing concentrations of 1-butanol on the antagonist activity (in words) [3]: did not eliminate the antagonist activity

Compound: CCCCCCCO [1-heptanol]
P(m/b) membrane/buffer partition coefficient [2]: 51.4

Compound: CCC(O)CC [3-pentanol]
P(m/b) membrane/buffer partition coefficient [2]: 4.69 | effect of increasing concentrations of 1-butanol on the antagonist activity (in words) [3]: eliminated the antagonist activity

Compound: CC(C)c1cccc(C(C)C)c1O [2,6-di-isopropyl phenol, 2,6-di-isopropylphenol, reference compound]
P(m/b) membrane/buffer partition coefficient [2]: 1233

Compound: CCCCCCCCCCCCCCCO [1-pentadecanol]
P(m/b) membrane/buffer partition coefficient [2]: 347560 | antagonist effect at higher concentrations (in words) [3]: inactive | antagonist activity against ethanol (in words) ([3]; against 100 mM ethanol): completely inactive | antagonist activity against ethanol (in words) ([3]; against 100 mM ethanol, listed as 1-Pentadecanol): no antagonist activity | agonist or antagonist activity (in words) [3]: neither agonists nor antagonists

Compound: OC1CCCC1 [cyclopentanol]
P(m/b) membrane/buffer partition coefficient [2]: 2.24 | effect of increasing concentrations of 1-butanol on the antagonist activity (in words) [3]: eliminated the antagonist activity

Compound: CCO [ethanol, reference compound]
inhibition at 100000 µM ([3]; NIH3T3, read-out: percent inhibition of L1-mediated cell-cell adhesion): 62 ± 7%

Compound: 1-butanol [reference compound]
mean±S.E.M. percent cell adhesion [1]: 13±2% | percent of the maximal agonist response ([3]; 2 mM 1-butanol (FIG. 5A)): approximately 90% | mean percent inhibition of cell adhesion ([3]; 2 mM 1-butanol alone, n=11): 60±5%

Continued, in another order:

EC50 [3, 7]: 80 µM
Compound: CCCCCCO [1-hexanol]

effect of increasing concentrations of 1-butanol on the antagonist activity (in words) [3]: eliminated the antagonist activity
Compound: OCc1ccccc1 [benzyl alcohol]
P(m/b) membrane/buffer partition coefficient [2]: 2.52

lipid solubility relative to 1-pentanol [4]: thirty-seven-fold more lipid soluble | EC50 [3]: 3 µM | EC50 [3, 6]: 98 µM | antagonist potency relative to 1-pentanol ([3]; FIG. 3 and Wilkemeyer et al., 2000): two hundred-fold more potent | EC50 [3, 8]: ~5 µM | IC50 [3]: 0.005 mM
Compound: CCCCCCCCO [1-octanol]
mean±S.E.M. percent cell adhesion [1]: 12±1% | P(m/b) membrane/buffer partition coefficient [2]: 189

agonist or antagonist activity (in words) [3]: neither agonists nor antagonists
Compound: CC(O)C1CC1 (stereo not shown) [cyclopropylethanol]
P(m/b) membrane/buffer partition coefficient [2]: 0.83

antagonist activity (in words) ([3]; 11 mM (ECEQ) 2-butanol): no antagonist activity | percent inhibition of L1-mediated cell-cell adhesion ([3]; 11 mM (ECEQ) 2-butanol alone, n=6): 63±9%
Compound: CCC(C)O (stereo not shown) [2-butanol]

IC50 ([3]; antagonism of 1-butanol inhibition of cell-cell adhesion): 3 mM | EC50 ([3]; read-out: approximate EC50 (against 2 mM 1-butanol), antagonist concentration used in FIG. 5B): ~3000 µM
Compound: C=CCCO [3-buten-1-ol]
mean±S.E.M. percent cell adhesion [1]: 14±0% | P(m/b) membrane/buffer partition coefficient [2]: 1 | effect on L1-mediated cell-cell adhesion, compound alone (in words) [5]: no effect

antagonist effect at higher concentrations (in words) [3]: inactive | antagonist activity against ethanol (in words) ([3]; against 100 mM ethanol): only minimal antagonist activity | agonist or antagonist activity (in words) [3]: neither agonists nor antagonists
Compound: CCCCCCCCCCCCCCO [1-tetradecanol]
P(m/b) membrane/buffer partition coefficient [2]: 112468

percent inhibition of cell adhesion ([3]; 15 mM 2-buten-1-ol alone, n=10): 34±4% | percent inhibition of cell adhesion ([3]; 15 mM 2-buten-1-ol plus 2 mM 1-butanol, n=11): 35+6% | antagonism of the actions of 1-butanol and ethanol (in words) ([3]; 15 mM (ECEQ) 2-buten-1-ol): partially antagonized | inhibition of L1-mediated cell-cell adhesion (in words) ([3]; 15 mM (ECEQ) 2-buten-1-ol): partially inhibited | antagonism of the actions of 1-butanol or ethanol (in words) ([3]; 150 mM 2-buten-1-ol): neither antagonized nor augmented | inhibition of L1-mediated cell-cell adhesion (in words) ([3]; 150 mM 2-buten-1-ol): maximally inhibited
Compound: CC=CCO [2-buten-1-ol]

EC50 [3]: 0.25 µM | EC50 [3, 6]: 1620 µM | fold less potent antagonist than C12 (1-dodecanol) ([3]; against 100 mM ethanol (FIG. 3)): approximately 25 fold
Compound: CCCCCCCCCCCCCO [1-tridecanol]
P(m/b) membrane/buffer partition coefficient [2]: 36394

EC50 [3, 6]: 140 µM and 28 µM
Compound: CCCCCCCCCCCCO [1-dodecanol]
P(m/b) membrane/buffer partition coefficient [2]: 26979

From patent US6977272B2, “Method for antagonizing inhibition effects of alcohol on cell adhesion” (President and Fellows of Harvard College, priority 2002, dated 2005)
